Measured values: patent US20080082038A1, “Medical Device including a Bioactive in a Non-ionic and an Ionic Form and Methods of Preparation Thereof” (Vance Products Incorporated, d/b/a/ Cook Urological …, priority 2006, published 2008)
Counter-ions that a name gives are not always drawn. Like-named read-outs stand apart in the source and are kept apart here.

Legend:
[1] = Solubility of bupivacaine free-base and salt in water and ethanol; type: physicochemical
Method: In water, the free-base (unionized form) of bupivacaine is much less soluble in water than the salt form (bupivacaine-HCl). A water suspension of free-base in water has a pH of 7.85. […] By lowering the pH, the ratio of protonated bupivacaine (ionized) to unprotonated bupivacaine (unionized) increases.
(§1) Stents, prepared as described in Example 1, are imbibed in 5% bupivacaine-HCl in water/ethanol for 20 minutes at 45° C.

[2] = Elution of deposited drug from imbibed stents in buffered saline solution (HPLC); type: physicochemical; conditions: for rate of elution of drug from imbibed polyurethane stent: polyurethane stent imbibed with the named form
Method: as §1
The amount of drug deposited on the stent is determined by high performance liquid chromatography (HPLC). The rate of bupivacaine dissolution is determined by measuring the elution profiles using HPLC.
The solubility and thus the ratio of bupivacaine to bupivacaine-HCl was determined by the elution of the deposited drug in buffered saline solution (pH=7.4) mimicking a bodily fluid.

[3] = buffered saline solution pH=7.4

SMILES	solubility ([1]; aqueous buffer, water, pH between 1.8 and 6, read-out: solubility (dissolved in water)) [mg/mL]	solubility ([1]; ethanol, organic solvent or mixture, read-out: solubility in ethanol) [mg/mL]	solubility ([1]; water, read-out: solubility in water) [mg/mL]	rate of elution of drug from imbibed polyurethane stent [2]	solubility in aqueous solution relative to the bupivacaine-salt ([1]; aqueous solution)	pH of water suspension of free-base ([1]; suspension in water)	solubility ([1]; water, pH 7.85, water, thermodynamic from solid, read-out: solubility) [mg/mL]	elution of the drug on day one and day two, ethanol solution relative to water solution [2, 3]	solubility of the deposited drug, ethanol deposition relative to water deposition [2, 3]	rate of elution of drug from imbibed polyurethane stent ([2]; listed as bupivacaine free-base)
CCCCN1CCCCC1C(=O)Nc1c(C)cccc1C (stereo not shown) [bupivacaine-HCl]	40 to 50	125	40	can elute more quickly						
CCCCN1CCCCC1C(=O)Nc1c(C)cccc1C (stereo not shown) [bupivacaine]					at least two orders of magnitude less soluble	7.85	~0.25	approximately six times	close to six times greater	greatly reduced
